In ChEMBL document CHEMBL4138123, “Design, synthesis and biological evaluation of novel pyrazolochalcones as potential modulators of PI3K/Akt/mTOR pathway and inducers of apoptosis in breast cancer cells” (Eur J Med Chem, 2017):

Experiments:
[1] = tested on: NCI-H322M; experiment: Cytotoxicity against human NCI-H322M cells assessed as growth inhibition after 48 hrs by sulforhodamine B assay; type: functional; conditions: for CC50: read-out: LC50 (the source's name)
[2] = tested on: CCRF-CEM; experiment: Cytotoxicity against human CCRF-CEM cells assessed as cell growth at 1 uM after 48 hrs by sulforhodamine B assay relative to control; type: functional; conditions: read-out: Activity
[3] = tested on: SK-MEL-2; experiment: Cytotoxicity against human SK-MEL-2 cells assessed as growth inhibition after 48 hrs by sulforhodamine B assay; type: functional; conditions: SK-MEL-2, 48 h
[4] = tested on: MCF7; experiment: Cytotoxicity against human MCF7 cells assessed as cell growth at 10 uM after 48 hrs by sulforhodamine B assay relative to control; type: functional; conditions: MCF7, 48 h, read-out: Activity
[5] = tested on: MDA-MB-231; experiment: Cytotoxicity against human MDA-MB-231 cells assessed as cell growth at 0.01 uM after 48 hrs by sulforhodamine B assay relative to control; type: functional; conditions: MDA-MB-231, 48 h, read-out: Activity
[6] = tested on: SK-OV-3; experiment: Cytotoxicity against human SKOV3 cells assessed as growth inhibition after 48 hrs by sulforhodamine B assay; type: functional; conditions: SK-OV-3, 48 h
[7] = tested on: A549; experiment: Cytotoxicity against human A549/ATCC cells assessed as cell growth at 100 uM after 48 hrs by sulforhodamine B assay relative to control; type: functional; conditions: A549, 48 h, read-out: Activity
[8] = tested on: HOP-62; experiment: Cytotoxicity against human HOP62 cells assessed as cell growth at 0.01 uM after 48 hrs by sulforhodamine B assay relative to control; type: functional; conditions: HOP-62, 48 h, read-out: Activity
[9] = tested on: OVCAR-5; experiment: Cytotoxicity against human OVCAR5 cells assessed as cell growth at 0.01 uM after 48 hrs by sulforhodamine B assay relative to control; type: functional; conditions: OVCAR-5, 48 h, read-out: Activity
[10] = tested on: SR; experiment: Cytotoxicity against human SR cells assessed as cell growth at 10 uM after 48 hrs by sulforhodamine B assay relative to control; type: functional; conditions: read-out: Activity
[11] = tested on: NCI-H23; experiment: Cytotoxicity against human NCI-H23 cells assessed as cell growth at 10 uM after 48 hrs by sulforhodamine B assay relative to control; type: functional; conditions: NCI-H23, 48 h, read-out: Activity
[12] = tested on: MOLT-4; experiment: Cytotoxicity against human MOLT4 cells assessed as cell growth at 0.01 uM after 48 hrs by sulforhodamine B assay relative to control; type: functional; conditions: MOLT-4, 48 h, read-out: Activity
[13] = tested on: BT-549; experiment: Cytotoxicity against human BT549 cells assessed as cell growth at 0.01 uM after 48 hrs by sulforhodamine B assay relative to control; type: functional; conditions: BT-549, 48 h, read-out: Activity
[14] = tested on: MCF7; experiment: Cytotoxicity against human MCF7 cells assessed as growth inhibition after 48 hrs by MTT assay; type: functional, cell-based; conditions: MCF7, 48 h
[15] = tested on: IGROV-1; experiment: Cytotoxicity against human IGROV1 cells assessed as cell growth at 0.1 uM after 48 hrs by sulforhodamine B assay relative to control; type: functional; conditions: IGROV-1, 48 h, read-out: Activity
[16] = tested on: SF-268; experiment: Cytotoxicity against human SF268 cells assessed as cell growth at 0.01 uM after 48 hrs by sulforhodamine B assay relative to control; type: functional; conditions: SF-268, 48 h, read-out: Activity
[17] = tested on: SNB-19; experiment: Cytotoxicity against human SNB19 cells assessed as cell growth at 1 uM after 48 hrs by sulforhodamine B assay relative to control; type: functional; conditions: SNB-19, 48 h, read-out: Activity
[18] = tested on: SF-268; experiment: Cytotoxicity against human SF268 cells assessed as cell growth at 10 uM after 48 hrs by sulforhodamine B assay relative to control; type: functional; conditions: SF-268, 48 h, read-out: Activity
[19] = tested on: OVCAR-4; experiment: Cytotoxicity against human OVCAR4 cells assessed as cell growth at 0.01 uM after 48 hrs by sulforhodamine B assay relative to control; type: functional; conditions: OVCAR-4, 48 h, read-out: Activity
[20] = tested on: KM12; experiment: Cytotoxicity against human KM12 cells assessed as cell growth at 0.01 uM after 48 hrs by sulforhodamine B assay relative to control; type: functional; conditions: KM12, 48 h, read-out: Activity
[21] = tested on: UACC-257; experiment: Cytotoxicity against human UACC257 cells assessed as growth inhibition after 48 hrs by sulforhodamine B assay; type: functional; conditions: UACC-257, 48 h
[22] = tested on: SW-620; experiment: Cytotoxicity against human SW620 cells assessed as growth inhibition after 48 hrs by sulforhodamine B assay; type: functional; conditions: SW-620, 48 h
[23] = tested on: COLO 205; experiment: Cytotoxicity against human COLO205 cells assessed as cell growth at 0.01 uM after 48 hrs by sulforhodamine B assay relative to control; type: functional; conditions: COLO 205, 48 h, read-out: Activity
[24] = tested on: NCI-H460; experiment: Cytotoxicity against human NCI-H460 cells assessed as cell growth at 100 uM after 48 hrs by sulforhodamine B assay relative to control; type: functional; conditions: NCI-H460, 48 h, read-out: Activity
[25] = tested on: Malme-3M; experiment: Cytotoxicity against human MALME-3M cells assessed as cell growth at 10 uM after 48 hrs by sulforhodamine B assay relative to control; type: functional; conditions: read-out: Activity
[26] = tested on: SF-268; experiment: Cytotoxicity against human SF268 cells assessed as cell growth at 1 uM after 48 hrs by sulforhodamine B assay relative to control; type: functional; conditions: SF-268, 48 h, read-out: Activity
[27] = tested on: SK-MEL-28; experiment: Cytotoxicity against human SK-MEL-28 cells assessed as cell growth at 1 uM after 48 hrs by sulforhodamine B assay relative to control; type: functional; conditions: SK-MEL-28, 48 h, read-out: Activity
[28] = tested on: MOLT-4; experiment: Cytotoxicity against human MOLT4 cells assessed as cell growth at 1 uM after 48 hrs by sulforhodamine B assay relative to control; type: functional; conditions: MOLT-4, 48 h, read-out: Activity
[29] = tested on: T47D; experiment: Cytotoxicity against human T47D cells assessed as cell growth at 10 uM after 48 hrs by sulforhodamine B assay relative to control; type: functional; conditions: read-out: Activity
[30] = tested on: A498; experiment: Cytotoxicity against human A498 cells assessed as cell growth at 1 uM after 48 hrs by sulforhodamine B assay relative to control; type: functional; conditions: A498, 48 h, read-out: Activity
[31] = tested on: SW-620; experiment: Cytotoxicity against human SW620 cells assessed as cell growth at 0.1 uM after 48 hrs by sulforhodamine B assay relative to control; type: functional; conditions: SW-620, 48 h, read-out: Activity
[32] = tested on: HL-60(TB); experiment: Cytotoxicity against human HL-60(TB) cells assessed as cell growth at 10 uM after 48 hrs by sulforhodamine B assay relative to control; type: functional; conditions: HL-60, 48 h, read-out: Activity
[33] = tested on: SW-620; experiment: Cytotoxicity against human SW620 cells assessed as cell growth at 10 uM after 48 hrs by sulforhodamine B assay relative to control; type: functional; conditions: SW-620, 48 h, read-out: Activity
[34] = tested on: NCI/ADR-RES; experiment: Cytotoxicity against human NCI/ADR-RES cells assessed as cell growth at 10 uM after 48 hrs by sulforhodamine B assay relative to control; type: functional; conditions: read-out: Activity
[35] = tested on: NCI/ADR-RES; experiment: Cytotoxicity against human NCI/ADR-RES cells assessed as cell growth at 100 uM after 48 hrs by sulforhodamine B assay relative to control; type: functional; conditions: read-out: Activity
[36] = tested on: HCC 2998; experiment: Cytotoxicity against human HCC2998 cells assessed as growth inhibition after 48 hrs by sulforhodamine B assay; type: functional; conditions: HCC 2998, 48 h

SMILES: COc1ccc(C(=O)/C=C/c2cc(-c3cc(OC)c(OC)c(OC)c3)n[nH]2)cc1OC
- TGI [1]: 2.9 µM
- CC50 [1]: 5.51 µM
- growth at 1 µM [2]: 39%
- LC50 (concentration killing 50% of cells) [3]: 6.68 µM
- TGI [3]: 3.51 µM
- growth at 10 µM [4]: -76%
- growth at 0.01 µM [5]: 104%
- LC50 [6]: 27.6 µM
- TGI [6]: 7.82 µM
- growth at 100 µM [7]: -78%
- growth at 0.01 µM [8]: 101%
- growth at 0.01 µM [9]: 101%
- growth at 10 µM [10]: 2%
- growth at 10 µM [11]: -36%
- growth at 0.01 µM [12]: 102%
- growth at 0.01 µM [13]: 95%
- IC50 [14]: 0.51 µM
- growth at 0.1 µM [15]: 96%
- growth at 0.01 µM [16]: 93%
- growth at 1 µM [17]: 73%
- growth at 10 µM [18]: -60%
- growth at 0.01 µM [19]: 95%
- growth at 0.01 µM [20]: 97%
- LC50 [21]: 5.37 µM
- TGI [21]: 2.83 µM
- LC50 (lethal concentration, 50% net cell kill) [22]: 6.55 µM
- TGI [22]: 2.99 µM
- growth at 0.01 µM [23]: 107%
- growth at 100 µM [24]: -65%
- growth at 10 µM [25]: -82%
- growth at 1 µM [26]: 89%
- growth at 1 µM [27]: 96%
- growth at 1 µM [28]: 88%
- growth at 10 µM [29]: -42%
- growth at 1 µM [30]: 78%
- growth at 0.1 µM [31]: 99%
- growth at 10 µM [32]: -41%
- growth at 10 µM [33]: -77%
- growth at 10 µM [34]: 10%
- growth at 100 µM [35]: -40%
- LC50 [36]: 6.7 µM
- TGI [36]: 3.78 µM

SMILES: COc1cc(-c2cc(/C=C/C(=O)c3ccc(Cl)c(Cl)c3)[nH]n2)cc(OC)c1OC
- TGI [1]: > 100 µM
- CC50 [1]: > 100 µM
- growth at 1 µM [2]: 71%
- LC50 (concentration killing 50% of cells) [3]: 83.8 µM
- TGI [3]: 34.1 µM
- growth at 10 µM [4]: 15%
- growth at 0.01 µM [5]: 103%
- LC50 [6]: 62.5 µM
- TGI [6]: 18.8 µM
- growth at 100 µM [7]: 2%
- growth at 0.01 µM [8]: 99%
- growth at 0.01 µM [9]: 97%
- growth at 10 µM [10]: 8%
- growth at 10 µM [11]: 79%
- growth at 0.01 µM [12]: 98%
- growth at 0.01 µM [13]: 89%
- IC50 [14]: 3.2 µM
- growth at 0.1 µM [15]: 98%
- growth at 0.01 µM [16]: 92%
- growth at 1 µM [17]: 90%
- growth at 10 µM [18]: 60%
- growth at 0.01 µM [19]: 92%
- growth at 0.01 µM [20]: 96%
- LC50 [21]: > 100 µM
- TGI [21]: 74 µM
- LC50 (lethal concentration, 50% net cell kill) [22]: > 100 µM
- TGI [22]: 79.6 µM
- growth at 0.01 µM [23]: 103%
- growth at 100 µM [24]: -24%
- growth at 10 µM [25]: 72%
- growth at 1 µM [26]: 92%
- growth at 1 µM [27]: 114%
- growth at 1 µM [28]: 97%
- growth at 10 µM [29]: 9%
- growth at 1 µM [30]: 73%
- growth at 0.1 µM [31]: 99%
- growth at 10 µM [32]: 43%
- growth at 10 µM [33]: 47%
- growth at 10 µM [34]: 51%
- growth at 100 µM [35]: 5%
- LC50 [36]: > 100 µM
- TGI [36]: 31.4 µM

SMILES: COc1ccc(C(=O)/C=C/c2cc(-c3cc(OC)c(OC)c(OC)c3)n[nH]2)cc1
- TGI [1]: 4.07 µM
- growth at 1 µM [2]: 62%
- LC50 (concentration killing 50% of cells) [3]: 99.2 µM
- TGI [3]: 19.6 µM
- growth at 10 µM [4]: -64%
- growth at 0.01 µM [5]: 104%
- LC50 [6]: > 100 µM
- TGI [6]: 20.5 µM
- growth at 100 µM [7]: 1%
- growth at 0.01 µM [8]: 99%
- growth at 0.01 µM [9]: 99%
- growth at 10 µM [10]: 3%
- growth at 10 µM [11]: 2%
- growth at 0.01 µM [12]: 103%
- growth at 0.01 µM [13]: 97%
- IC50 [14]: 0.81 µM
- growth at 0.1 µM [15]: 102%
- growth at 0.01 µM [16]: 91%
- growth at 1 µM [17]: 79%
- growth at 10 µM [18]: -35%
- growth at 0.01 µM [19]: 91%
- growth at 0.01 µM [20]: 99%
- TGI [21]: 3.74 µM
- TGI [22]: 3.47 µM
- growth at 0.01 µM [23]: 103%
- growth at 100 µM [24]: -62%
- growth at 10 µM [25]: -66%
- growth at 1 µM [26]: 87%
- growth at 1 µM [27]: 101%
- growth at 1 µM [28]: 102%
- growth at 10 µM [29]: 1%
- growth at 1 µM [30]: 84%
- growth at 0.1 µM [31]: 97%
- growth at 10 µM [32]: -47%
- growth at 10 µM [33]: -69%
- growth at 10 µM [34]: -1%
- growth at 100 µM [35]: -6%
- LC50 [36]: 6.48 µM
- TGI [36]: 3.4 µM
